Molecular target: T1, GALR3 septuple (Homo sapiens, UniProt O60755, A190V/A191F/C272L/G192S/L100F/Y103F/Y107H)
T1 construct: expressed in transfected cells; host or cells: HEK293 cells stably expressing pGlosensor-22F cAMP plasmid
T1 sequence (O60755 1-368 L100F/Y103F/Y107H/A190V/A191F/G192S/C272L): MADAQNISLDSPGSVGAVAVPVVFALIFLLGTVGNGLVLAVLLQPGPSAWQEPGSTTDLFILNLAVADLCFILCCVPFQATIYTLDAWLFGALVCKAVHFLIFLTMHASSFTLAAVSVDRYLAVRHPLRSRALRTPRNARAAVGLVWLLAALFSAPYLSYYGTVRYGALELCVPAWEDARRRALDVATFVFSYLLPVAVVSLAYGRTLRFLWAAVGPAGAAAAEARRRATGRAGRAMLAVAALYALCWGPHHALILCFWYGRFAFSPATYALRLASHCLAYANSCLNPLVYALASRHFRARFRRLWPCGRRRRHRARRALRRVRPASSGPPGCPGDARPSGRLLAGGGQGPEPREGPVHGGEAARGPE
Test: SRE-luc luciferase assay, GALR3 septuple mutant
Format: cell-based
Conditions: SRE-luc in HEK293 Gqi cells, ligand 6 h, mean ± SE, SEM
Text: For domain swapping between GALR2 and GALR3, individual cDNA fragments of interest were amplified by polymerase chain reaction (PCR) with Pfu polymerase (ELPIS Biotech, Daejeon, Korea) and two specific primers, one corresponding to the 5' or 3' end of the GALR2 or GALR3 cDNA and the other to the region of overlap between the two receptors. The two resulting fragments, one from GALR2 and the other from GALR3, were subjected to a second round of PCR to generate the chimeric cDNAs. To construct single, double-, triple-, pentuple-, hextuple-, and septuple-mutant receptors, amino acids of GALR3 were substituted for the amino acids at the corresponding positions in GALR2 using PCR-based site-directed mutagenesis. […]
For luciferase assays, HEK293 Gqi cells were seeded on 48-well plates at a density of 2.5 × 10^4 cells/well one day before transfection. […] The luciferase activity in 50 μl cell extract was determined using a luciferase assay system according to the standard protocol for the Synergy 2 Multi-Mode Microplate Reader (BioTek, Winooski, VT, USA).
Data analysis was performed by non-linear regression with a sigmoidal dose-response curve. The concentrations of agonists that induced half-maximal stimulation (EC50) were calculated using the GraphPad PRISM5 software (GraphPad software, Inc., San Diego, CA). […]

## CSCC[C@H](NC(=O)[C@H](C)NC(=O)[C@H](CCC(N)=O)NC(=O)[C@@H]1CCCN1C(=O)[C@@H](NC(=O)[C@H](Cc1c[nH]c2ccccc12)NC(=O)[C@@H](N)CC(N)=O)[C@@H](C)O)C(=O)N[C@@H](CC(C)C)C(=O)N[C@@H](Cc1ccc(O)cc1)C(=O)N[C@@H](CC(C)C)C(=O)N[C@@H](CCCCN)C(=O)NCC(=O)N[C@@H](C)C(=O)N[C@@H](CCC(N)=O)C(N)=O [SPX, reference compound]
  EC50: 4.07 ± 1.12 nM

From article PMC7108740, “Exploring the molecular structures that confer ligand selectivity for galanin type II and III receptors” (PLoS ONE, 2020)
